Measured values as given in paper PMC5053573, “Structure-Based Design of Tetrahydroisoquinoline-7-carboxamides as Selective Discoidin Domain Receptor 1 (DDR1) Inhibitors” (Journal of Medicinal Chemistry, 2016).

Assays:
Experiment in all cases: biochemical
Conditions in all cases: read-out: %Ctrl @ 1000nM
AKT1 = AKT1 (Homo sapiens, UniProt P31749)
AURKB = AURKB (Homo sapiens, UniProt Q96GD4)
AURKC = AURKC (Homo sapiens, UniProt Q9UQB9)
BLK = BLK (Homo sapiens, UniProt P51451)
BMPR1B = BMPR1B (Homo sapiens, UniProt O00238)
BRAF = BRAF (Homo sapiens, UniProt P15056)
CAMK1G = CAMK1G (Homo sapiens, UniProt Q96NX5)
CAMK4 = CAMK4 (Homo sapiens, UniProt Q16566)
CASK = CASK (Homo sapiens, UniProt O14936)
CSNK1G3 = CSNK1G3 (Homo sapiens, UniProt Q9Y6M4)
CSNK2A2 = CSNK2A2 (Homo sapiens, UniProt P19784)
DYRK2 = DYRK2 (Homo sapiens, UniProt Q92630)
EPHA5 = EPHA5 (Homo sapiens, UniProt P54756)
EPHB6 = EPHB6 (Homo sapiens, UniProt O15197)
ERBB3 = ERBB3 (Homo sapiens, UniProt P21860)
GRK7 = GRK7 (Homo sapiens, UniProt Q8WTQ7)
GSK3B = GSK3B (Homo sapiens, UniProt P49841)
HCK = HCK (Homo sapiens, UniProt P08631)
ICK = molecular target: T1, ICK (Homo sapiens, UniProt Q9UPZ9)
T1 construct: gene CILK1

IKK-epsilon = molecular target: T2, IKK-epsilon (Homo sapiens, UniProt Q14164)
T2 construct: gene IKBKE

[1] = molecular target: JAK1(JH2domain-pseudokinase) (Homo sapiens, UniProt P23458)
MAP3K4 = MAP3K4 (Homo sapiens, UniProt Q9Y6R4)
MAP4K2 = MAP4K2 (Homo sapiens, UniProt Q12851)
MET(Y1235D) = MET(Y1235D) (Homo sapiens, UniProt P08581, Y1235D)
NEK9 = NEK9 (Homo sapiens, UniProt Q8TD19)
PDGFRB = PDGFRB (Homo sapiens, UniProt P09619)
PFTK1 = molecular target: T3, PFTK1 (Homo sapiens, UniProt O94921)
T3 construct: gene CDK14

PIK3CA(H1047L) = PIK3CA(H1047L) (Homo sapiens, UniProt P42336, H1047L)
PKN1 = PKN1 (Homo sapiens, UniProt Q16512)
PRKCD = PRKCD (Homo sapiens, UniProt Q05655)
PRKCI = PRKCI (Homo sapiens, UniProt P41743)
RET = RET (Homo sapiens, UniProt P07949)
RIOK1 = RIOK1 (Homo sapiens, UniProt Q9BRS2)
RIPK2 = RIPK2 (Homo sapiens, UniProt O43353)
[2] = molecular target: RPS6KA4(Kin.Dom.2-C-terminal) (Homo sapiens, UniProt O75676)
STK39 = STK39 (Homo sapiens, UniProt Q9UEW8)

Chain of NEK9 (Q8TD19 whole entry): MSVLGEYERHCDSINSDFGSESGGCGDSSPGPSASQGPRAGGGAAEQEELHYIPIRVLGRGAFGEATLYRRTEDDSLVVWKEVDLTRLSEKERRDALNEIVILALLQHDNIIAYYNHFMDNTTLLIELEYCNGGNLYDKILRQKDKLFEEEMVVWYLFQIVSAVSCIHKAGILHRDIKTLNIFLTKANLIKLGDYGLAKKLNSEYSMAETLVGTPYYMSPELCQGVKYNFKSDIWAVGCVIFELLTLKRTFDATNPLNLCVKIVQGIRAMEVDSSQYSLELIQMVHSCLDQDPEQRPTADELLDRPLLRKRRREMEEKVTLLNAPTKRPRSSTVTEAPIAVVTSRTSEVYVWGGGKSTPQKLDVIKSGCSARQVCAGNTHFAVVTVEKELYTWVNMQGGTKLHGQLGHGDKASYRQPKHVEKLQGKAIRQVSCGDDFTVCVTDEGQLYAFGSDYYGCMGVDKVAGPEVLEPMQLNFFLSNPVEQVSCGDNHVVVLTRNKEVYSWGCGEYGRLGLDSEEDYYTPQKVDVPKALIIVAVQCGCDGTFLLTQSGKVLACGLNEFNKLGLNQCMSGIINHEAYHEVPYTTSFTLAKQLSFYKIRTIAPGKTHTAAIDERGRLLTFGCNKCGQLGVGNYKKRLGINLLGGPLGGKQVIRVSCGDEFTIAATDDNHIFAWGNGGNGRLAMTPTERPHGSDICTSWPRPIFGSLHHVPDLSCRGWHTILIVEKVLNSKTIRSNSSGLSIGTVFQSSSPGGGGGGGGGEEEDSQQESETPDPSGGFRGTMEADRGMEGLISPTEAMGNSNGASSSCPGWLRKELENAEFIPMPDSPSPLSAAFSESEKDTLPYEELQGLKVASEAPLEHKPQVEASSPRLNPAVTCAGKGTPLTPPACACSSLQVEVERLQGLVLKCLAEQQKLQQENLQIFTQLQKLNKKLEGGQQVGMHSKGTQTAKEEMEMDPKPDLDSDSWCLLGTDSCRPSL
Chain of MAP4K2 (Q12851 whole entry): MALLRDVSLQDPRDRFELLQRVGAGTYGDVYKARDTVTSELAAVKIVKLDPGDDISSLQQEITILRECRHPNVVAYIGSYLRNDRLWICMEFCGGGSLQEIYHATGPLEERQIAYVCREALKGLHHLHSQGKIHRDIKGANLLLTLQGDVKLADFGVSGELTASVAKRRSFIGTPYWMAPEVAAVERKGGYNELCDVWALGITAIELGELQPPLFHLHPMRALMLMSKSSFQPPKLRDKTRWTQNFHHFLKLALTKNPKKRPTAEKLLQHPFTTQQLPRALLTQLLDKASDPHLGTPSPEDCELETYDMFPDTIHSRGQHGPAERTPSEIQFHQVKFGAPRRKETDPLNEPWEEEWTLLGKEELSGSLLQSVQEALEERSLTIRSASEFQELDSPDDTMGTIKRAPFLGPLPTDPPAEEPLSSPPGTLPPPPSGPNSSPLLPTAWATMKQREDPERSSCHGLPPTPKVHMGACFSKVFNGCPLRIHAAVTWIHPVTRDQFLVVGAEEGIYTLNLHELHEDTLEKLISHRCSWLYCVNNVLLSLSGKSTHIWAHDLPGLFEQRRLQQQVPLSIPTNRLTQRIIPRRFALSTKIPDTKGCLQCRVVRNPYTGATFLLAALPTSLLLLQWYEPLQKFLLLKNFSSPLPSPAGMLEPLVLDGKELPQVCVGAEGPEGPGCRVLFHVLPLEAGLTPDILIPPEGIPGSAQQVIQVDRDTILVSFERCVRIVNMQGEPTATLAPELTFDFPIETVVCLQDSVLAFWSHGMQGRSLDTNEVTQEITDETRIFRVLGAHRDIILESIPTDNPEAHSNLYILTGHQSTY
Chain of GRK7 (Q8WTQ7 whole entry): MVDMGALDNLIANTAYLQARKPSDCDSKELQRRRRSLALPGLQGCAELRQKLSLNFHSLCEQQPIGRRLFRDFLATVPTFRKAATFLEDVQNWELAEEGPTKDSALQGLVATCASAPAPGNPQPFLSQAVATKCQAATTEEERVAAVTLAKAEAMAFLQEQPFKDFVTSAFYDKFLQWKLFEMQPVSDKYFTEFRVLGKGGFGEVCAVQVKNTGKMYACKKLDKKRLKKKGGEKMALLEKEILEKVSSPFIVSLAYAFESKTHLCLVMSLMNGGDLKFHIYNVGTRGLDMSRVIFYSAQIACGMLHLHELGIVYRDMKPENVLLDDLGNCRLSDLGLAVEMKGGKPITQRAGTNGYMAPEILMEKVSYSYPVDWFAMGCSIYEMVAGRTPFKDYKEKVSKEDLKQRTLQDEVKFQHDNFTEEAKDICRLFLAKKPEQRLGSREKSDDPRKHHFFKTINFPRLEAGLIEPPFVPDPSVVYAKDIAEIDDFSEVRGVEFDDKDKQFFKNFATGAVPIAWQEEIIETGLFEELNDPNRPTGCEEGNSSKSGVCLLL
Chain of CAMK1G (Q96NX5 whole entry): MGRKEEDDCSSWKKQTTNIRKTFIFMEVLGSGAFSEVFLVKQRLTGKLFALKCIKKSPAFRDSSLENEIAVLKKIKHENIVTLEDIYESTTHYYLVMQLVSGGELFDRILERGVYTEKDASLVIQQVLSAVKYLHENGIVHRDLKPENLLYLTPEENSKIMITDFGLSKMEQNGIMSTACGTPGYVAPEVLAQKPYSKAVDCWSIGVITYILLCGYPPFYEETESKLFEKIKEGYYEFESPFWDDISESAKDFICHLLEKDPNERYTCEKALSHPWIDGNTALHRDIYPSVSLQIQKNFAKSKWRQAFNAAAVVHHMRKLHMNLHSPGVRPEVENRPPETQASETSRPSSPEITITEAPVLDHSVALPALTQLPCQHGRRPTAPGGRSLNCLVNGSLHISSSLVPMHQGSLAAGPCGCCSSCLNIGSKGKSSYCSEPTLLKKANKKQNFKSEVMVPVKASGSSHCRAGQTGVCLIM
Chain of MAP3K4 (Q9Y6R4 whole entry): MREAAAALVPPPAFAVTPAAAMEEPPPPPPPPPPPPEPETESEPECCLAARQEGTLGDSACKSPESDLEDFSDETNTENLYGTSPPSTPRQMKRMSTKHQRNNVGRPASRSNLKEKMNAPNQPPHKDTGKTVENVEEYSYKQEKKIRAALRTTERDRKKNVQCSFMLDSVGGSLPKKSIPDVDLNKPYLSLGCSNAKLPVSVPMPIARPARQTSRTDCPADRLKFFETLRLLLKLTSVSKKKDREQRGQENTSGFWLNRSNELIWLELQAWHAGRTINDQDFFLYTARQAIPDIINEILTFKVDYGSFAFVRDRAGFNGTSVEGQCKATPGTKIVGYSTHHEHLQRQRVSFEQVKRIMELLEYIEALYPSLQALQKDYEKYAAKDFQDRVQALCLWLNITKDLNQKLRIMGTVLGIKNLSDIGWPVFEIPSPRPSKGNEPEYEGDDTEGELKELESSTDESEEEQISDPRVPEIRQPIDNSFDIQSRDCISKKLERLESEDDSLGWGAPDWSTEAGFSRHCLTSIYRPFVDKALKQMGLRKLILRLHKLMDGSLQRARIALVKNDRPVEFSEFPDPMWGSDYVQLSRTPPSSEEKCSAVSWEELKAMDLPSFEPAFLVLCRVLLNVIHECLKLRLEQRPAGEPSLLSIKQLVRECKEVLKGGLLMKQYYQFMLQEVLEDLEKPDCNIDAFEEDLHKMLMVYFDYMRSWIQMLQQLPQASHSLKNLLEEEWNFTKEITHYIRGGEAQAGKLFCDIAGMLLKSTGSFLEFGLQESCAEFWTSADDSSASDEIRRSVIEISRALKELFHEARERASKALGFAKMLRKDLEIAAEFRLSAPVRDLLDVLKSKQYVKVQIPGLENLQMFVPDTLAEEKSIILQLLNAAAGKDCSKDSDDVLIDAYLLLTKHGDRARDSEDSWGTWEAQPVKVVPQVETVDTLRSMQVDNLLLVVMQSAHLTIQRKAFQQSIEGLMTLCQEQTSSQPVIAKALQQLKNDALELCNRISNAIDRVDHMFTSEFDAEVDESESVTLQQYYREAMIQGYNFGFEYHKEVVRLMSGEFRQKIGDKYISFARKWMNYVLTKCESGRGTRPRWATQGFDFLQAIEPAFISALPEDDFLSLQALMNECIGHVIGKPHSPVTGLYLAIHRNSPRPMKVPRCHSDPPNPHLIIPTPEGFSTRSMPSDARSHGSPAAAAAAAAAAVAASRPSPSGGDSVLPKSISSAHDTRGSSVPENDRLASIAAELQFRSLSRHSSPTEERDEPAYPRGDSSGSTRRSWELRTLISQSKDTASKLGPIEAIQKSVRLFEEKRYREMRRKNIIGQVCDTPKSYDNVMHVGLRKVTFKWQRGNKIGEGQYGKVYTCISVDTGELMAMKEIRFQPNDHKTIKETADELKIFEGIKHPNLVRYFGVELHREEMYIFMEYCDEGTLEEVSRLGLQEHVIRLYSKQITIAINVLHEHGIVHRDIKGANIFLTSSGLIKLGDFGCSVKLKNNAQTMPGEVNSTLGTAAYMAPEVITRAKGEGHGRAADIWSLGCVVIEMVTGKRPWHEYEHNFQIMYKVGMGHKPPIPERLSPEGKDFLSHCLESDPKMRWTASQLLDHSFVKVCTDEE
Chain of CAMK4 (Q16566 whole entry): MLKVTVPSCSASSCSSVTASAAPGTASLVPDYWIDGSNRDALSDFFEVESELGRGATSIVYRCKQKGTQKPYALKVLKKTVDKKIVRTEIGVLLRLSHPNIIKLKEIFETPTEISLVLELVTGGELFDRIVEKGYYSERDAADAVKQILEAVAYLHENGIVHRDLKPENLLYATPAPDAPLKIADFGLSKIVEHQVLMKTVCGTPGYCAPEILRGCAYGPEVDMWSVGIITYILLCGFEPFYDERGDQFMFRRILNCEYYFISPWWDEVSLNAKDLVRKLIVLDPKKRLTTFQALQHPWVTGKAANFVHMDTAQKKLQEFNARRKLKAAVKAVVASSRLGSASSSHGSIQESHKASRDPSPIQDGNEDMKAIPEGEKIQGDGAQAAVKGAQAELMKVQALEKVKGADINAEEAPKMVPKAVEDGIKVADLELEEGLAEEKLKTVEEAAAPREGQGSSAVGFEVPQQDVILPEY

Cc1cn(-c2cc(NC(=O)c3ccc4c(c3)CN(c3cncnc3)C[C@@H]4C)cc(C(F)(F)F)c2)cn1 [Compound 6j]
remaining activity at 1 µM (AKT1): 96%
remaining activity at 1 µM (AURKB): 98%
remaining activity at 1 µM (AURKC): 100%
remaining activity at 1 µM (BLK): 68%
remaining activity at 1 µM (BMPR1B): 100%
remaining activity at 1 µM (BRAF): 96%
remaining activity at 1 µM (CAMK1G): 84%
remaining activity at 1 µM (CAMK4): 86%
remaining activity at 1 µM (CASK): 100%
remaining activity at 1 µM (CSNK1G3): 72%
remaining activity at 1 µM (CSNK2A2): 93%
remaining activity at 1 µM (DYRK2): 100%
remaining activity at 1 µM (EPHA5): 74%
remaining activity at 1 µM (EPHB6): 100%
remaining activity at 1 µM (ERBB3): 100%
remaining activity at 1 µM (GRK7): 94%
remaining activity at 1 µM (GSK3B): 94%
remaining activity at 1 µM (HCK): 86%
remaining activity at 1 µM (ICK): 100%
remaining activity at 1 µM (IKK-epsilon): 86%
remaining activity at 1 µM [1]: 100%
remaining activity at 1 µM (MAP3K4): 56%
remaining activity at 1 µM (MAP4K2): 93%
remaining activity at 1 µM (MET(Y1235D)): 68%
remaining activity at 1 µM (NEK9): 85%
remaining activity at 1 µM (PDGFRB): 82%
remaining activity at 1 µM (PFTK1): 94%
remaining activity at 1 µM (PIK3CA(H1047L)): 100%
remaining activity at 1 µM (PKN1): 100%
remaining activity at 1 µM (PRKCD): 94%
remaining activity at 1 µM (PRKCI): 72%
remaining activity at 1 µM (RET): 94%
remaining activity at 1 µM (RIOK1): 100%
remaining activity at 1 µM (RIPK2): 80%
remaining activity at 1 µM [2]: 100%
remaining activity at 1 µM (STK39): 100%
